pEC50: −log10 of the molar value. Like-named read-outs stand apart in the source and are kept apart here.
Tested on: ring stage parasites (Pf)
Assay: Parasite lactate dehydrogenase (LDH) growth assay (Parasite Assay, PfLDH Assay)
Type: cell-based, P. falciparum
Settings: Table 3, 72 hours growth, LDH readout, read-out: EC50

SMILES	pEC50 (Plasmodium falciparum, 72 h)	pEC50
CC1(C)CC(=O)N([C@@H](c2cncc(Cl)c2)[C@H]2C[C@@H]2C(=O)N[C@H]2C[C@H](C(F)(F)F)Oc3ccccc32)C(=N)N1 [Example 60B]	7.00	
CC[C@]1(C)CC(=O)N([C@H](CCOC)[C@H]2C[C@@H]2C(=O)N[C@@H]2c3ccccc3OC(C)(C)[C@H]2O)C(=N)N1 [Example 61]	8.16	
CC[C@]1(C)CC(=O)N([C@@H](CCOC)[C@H]2C[C@@H]2C(=O)N[C@H]2C[C@H](C(F)(F)F)Oc3ccccc32)C(=N)N1 [Example 62A]	7.51	
CC[C@]1(C)CC(=O)N([C@H](CCOC)[C@H]2C[C@@H]2C(=O)N[C@H]2C[C@H](C(F)(F)F)Oc3ccccc32)C(=N)N1 [Example 62B]	9.10	
CC[C@]1(C)CC(=O)N([C@H](c2cccnc2)[C@H]2C[C@@H]2C(=O)N[C@H]2CC(C)(C)Oc3ccccc32)C(=N)N1 [Example 63]	8.92	
CC[C@]1(C)CC(=O)N([C@H](CCOC)[C@H]2C[C@@H]2C(=O)N[C@H]2CC(C)(C)Oc3ccccc32)C(=N)N1 [Example 64A]	8.64	
CC[C@]1(C)CC(=O)N([C@@H](CCOC)[C@H]2C[C@@H]2C(=O)N[C@H]2CC(C)(C)Oc3ccccc32)C(=N)N1 [Example 64B]	6.71	
COc1ccc2c(c1)OC(C)(C)C[C@@H]2NC(=O)[C@H]1C[C@@H]1[C@H](c1cccnc1)N1C(=N)NC(C)(C)CC1=O [Example 65A]		8.55
COc1ccc2c(c1)OC(C)(C)C[C@@H]2NC(=O)[C@H]1C[C@@H]1[C@H](c1cccnc1)N1C(=N)NC(C)(C)CC1=O [Example 65B]		8.10
CC[C@]1(C)CC(=O)N([C@H](c2cncc(F)c2)[C@H]2C[C@@H]2C(=O)N[C@@H]2c3ccccc3OC(C)(C)[C@H]2O)C(=N)N1 [Example 66]	8.59	
CC[C@@]1(C)CC(=O)N(C(c2cncc(F)c2)[C@H]2C[C@@H]2C(=O)N[C@H]2CC(C)(C)Oc3ccccc32)C(=N)N1 (stereo partly shown) [Example 67A]	9.05	
CC[C@@]1(C)CC(=O)N(C(c2cncc(F)c2)[C@H]2C[C@@H]2C(=O)N[C@H]2CC(C)(C)Oc3ccccc32)C(=N)N1 (stereo partly shown) [Example 67B]		9.22
CC[C@]1(C)CC(=O)N([C@H](c2cncc(F)c2)[C@H]2C[C@@H]2C(=O)N[C@H]2C[C@H](C(F)(F)F)Oc3ccccc32)C(=N)N1 [Example 68]	9.52	
CC[C@@]1(C)CC(=O)N(C(c2cncc(F)c2)[C@H]2C[C@@H]2C(=O)N[C@H]2CC(C)(C)Oc3ccc(F)cc32)C(=N)N1 (stereo partly shown) [Example 69A]		9.00
CC[C@@]1(C)CC(=O)N(C(c2cncc(F)c2)[C@H]2C[C@@H]2C(=O)N[C@H]2CC(C)(C)Oc3ccc(F)cc32)C(=N)N1 (stereo partly shown) [Example 69B]		8.72
CC[C@@]1(C)CC(=O)N(C(c2cncc(F)c2)[C@H]2C[C@@H]2C(=O)N[C@H]2CC(C)(C)Oc3ccc(F)cc32)C(=N)N1 (stereo partly shown) [Example 69C]		9.10
CC[C@@]1(C)CC(=O)N(C(c2cncc(F)c2)[C@H]2C[C@@H]2C(=O)N[C@H]2CC(C)(C)Oc3ccc(F)cc32)C(=N)N1 (stereo partly shown) [Example 69D]		9.52
CC[C@@]1(C)CC(=O)N(C(c2cncc(F)c2)[C@H]2C[C@@H]2C(=O)N[C@H]2CC(C)(C)Oc3ccc(F)cc32)C(=N)N1 (stereo partly shown) [Example 69E]		6.52
COCC[C@H]([C@H]1C[C@@H]1C(=O)N[C@@H]1CC(C)(C)Oc2cc(OC)ccc21)N1C(=N)NC(C)(C)CC1=O [Example 70A]	7.11	
COCC[C@H]([C@H]1C[C@@H]1C(=O)N[C@H]1CC(C)(C)Oc2cc(OC)ccc21)N1C(=N)NC(C)(C)CC1=O [Example 70B]	7.72	

SMILES	pEC50 (Plasmodium falciparum, 72 h)	pEC50
CC1(C)CC(=O)N(C[C@H]2C[C@@H]2C(=O)N[C@H]2CC(C)(C)Oc3ccc(F)cc32)C(=N)N1 [Example 71]	6.90	
COCC[C@H]([C@H]1C[C@@H]1C(=O)N[C@@H]1CC(C)(C)Oc2ccc(F)cc21)N1C(=N)NC(C)(C)CC1=O [Example 72A]	7.96	
COCC[C@H]([C@H]1C[C@@H]1C(=O)N[C@H]1CC(C)(C)Oc2ccc(F)cc21)N1C(=N)NC(C)(C)CC1=O [Example 72B]	8.60	
COc1cccc2c1[C@@H](NC(=O)[C@H]1C[C@@H]1CN1C(=N)NC(C)(C)CC1=O)CC(C)(C)O2 [Example 73]	6.72	
COCC[C@H]([C@H]1C[C@@H]1C(=O)N[C@@H]1CC(C)(C)Oc2cccc(OC)c21)N1C(=N)NC(C)(C)CC1=O [Example 74A]	7.48	
COCC[C@H]([C@H]1C[C@@H]1C(=O)N[C@H]1CC(C)(C)Oc2cccc(OC)c21)N1C(=N)NC(C)(C)CC1=O [Example 74B]	8.51	
CCC1(C)CC(NC(=O)[C@H]2C[C@@H]2[C@@H](CCOC)N2C(=N)NC(C)(C)CC2=O)c2ccccc2O1 (stereo partly shown) [Example 75A]	8.09	
COCC[C@H]([C@H]1C[C@@H]1C(=O)NC1CC(C)(C)Oc2cc(F)ccc21)N1C(=N)NC(C)(C)CC1=O (stereo partly shown) [Example 76A]	7.77	
COCC[C@H]([C@H]1C[C@@H]1C(=O)NC1CC(C)(C)Oc2cc(F)ccc21)N1C(=N)NC(C)(C)CC1=O (stereo partly shown) [Example 76B]		7.82
CC1(C)CC(=O)N([C@H](c2cccnc2)[C@H]2C[C@@H]2C(=O)NC2CC(C)(C)Oc3cc(F)ccc32)C(=N)N1 (stereo partly shown) [Example 77A]	8.77	
CC1(C)CC(=O)N([C@H](c2cccnc2)[C@H]2C[C@@H]2C(=O)NC2CC(C)(C)Oc3cc(F)ccc32)C(=N)N1 (stereo partly shown) [Example 77B]		8.64
CCC1(C)C[C@H](NC(=O)[C@H]2C[C@@H]2CN2C(=N)NC(C)(C)CC2=O)c2ccccc2O1 (stereo partly shown) [Example 78]	6.52	
CC(C)C1(C)CC(NC(=O)[C@H]2C[C@@H]2CN2C(=N)NC(C)(C)CC2=O)c2ccccc2O1 (stereo partly shown) [Example 79A]	6.59	
COCC[C@H]([C@H]1C[C@@H]1C(=O)N[C@H]1CC(C)(C)Oc2cc(C)ccc21)N1C(=N)NC(C)(C)CC1=O [Example 83A]	8.18	
COCC[C@H]([C@H]1C[C@@H]1C(=O)N[C@@H]1CC(C)(C)Oc2cc(C)ccc21)N1C(=N)NC(C)(C)CC1=O [Example 83B]	7.59	
Cc1ccc2c(c1)OC(C)(C)C[C@@H]2NC(=O)[C@H]1C[C@@H]1CN1C(=N)NC(C)(C)CC1=O [Example 84]	6.54	
Cc1ccc2c(c1)OC(C)(C)C[C@@H]2NC(=O)[C@H]1C[C@@H]1[C@@H](c1cccnc1)N1C(=N)NC(C)(C)CC1=O [Example 85A]	8.62	
Cc1ccc2c(c1)OC(C)(C)C[C@H]2NC(=O)[C@H]1C[C@@H]1[C@@H](c1cccnc1)N1C(=N)NC(C)(C)CC1=O [Example 85B]	9.05	
CC1(C)CC(=O)N([C@H](c2cccnc2)[C@H]2C[C@@H]2C(=O)N[C@@H]2CC(C)(C)Oc3cccc(F)c32)C(=N)N1 [Example 86A]	8.66	
CC1(C)CC(=O)N([C@H](c2cccnc2)[C@H]2C[C@@H]2C(=O)N[C@@H]2CC(C)(C)Oc3cccc(F)c32)C(=N)N1 [Example 86B]		8.55

SMILES	pEC50 (Plasmodium falciparum, 72 h)	pEC50
CC1(C)CC(=O)N(C[C@H]2C[C@@H]2C(=O)N[C@H]2CC(C)(C)Oc3cccc(F)c32)C(=N)N1 [Example 87]	6.80	
COCC[C@H]([C@H]1C[C@@H]1C(=O)N[C@H]1CC(C)(C)Oc2cccc(F)c21)N1C(=N)NC(C)(C)CC1=O [Example 88A]	8.28	
COCC[C@H]([C@H]1C[C@@H]1C(=O)N[C@@H]1CC(C)(C)Oc2cccc(F)c21)N1C(=N)NC(C)(C)CC1=O [Example 88B]	8.00	
COCC[C@H]([C@H]1C[C@@H]1C(=O)N[C@H]1CC(C)(C)Oc2cc(Cl)ccc21)N1C(=N)NC(C)(C)CC1=O [Example 89A]	8.25	
COCC[C@H]([C@H]1C[C@@H]1C(=O)N[C@@H]1CC(C)(C)Oc2cc(Cl)ccc21)N1C(=N)NC(C)(C)CC1=O [Example 89B]	7.66	
CC1(C)CC(=O)N(C[C@H]2C[C@@H]2C(=O)N[C@H]2CC(C)(C)Oc3cc(Cl)ccc32)C(=N)N1 [Example 90]	6.65	
CC1(C)CC(=O)N([C@@H](c2cccnc2)[C@H]2C[C@@H]2C(=O)N[C@H]2CC(C)(C)Oc3cc(Cl)ccc32)C(=N)N1 [Example 91A]	9.10	
CC1(C)CC(=O)N([C@H](c2cccnc2)[C@H]2C[C@@H]2C(=O)N[C@H]2CC(C)(C)Oc3cc(Cl)ccc32)C(=N)N1 [Example 91B]	8.57	
CCC1(CC)CC(NC(=O)[C@H]2C[C@@H]2[C@@H](CCOC)N2C(=N)NC(C)(C)CC2=O)c2ccccc2O1 (stereo partly shown) [Example 92A]	8.12	
CCC1(CC)CC(NC(=O)[C@H]2C[C@@H]2[C@@H](CCOC)N2C(=N)NC(C)(C)CC2=O)c2ccccc2O1 (stereo partly shown) [Example 92B]		8.14
CC1(C)CC(=O)N([C@H](c2cccnc2)[C@H]2C[C@@H]2C(=O)NC2CC(C)(C)Oc3c(F)cccc32)C(=N)N1 (stereo partly shown) [Example 93A]	8.48	
CC1(C)CC(=O)N([C@H](c2cccnc2)[C@H]2C[C@@H]2C(=O)NC2CC(C)(C)Oc3c(F)cccc32)C(=N)N1 (stereo partly shown) [Example 93B]		8.62
CC1(C)CC(=O)N([C@H](c2cccnc2)[C@H]2C[C@@H]2C(=O)NC2CC(C)(C)Oc3c(Cl)cc(Cl)cc32)C(=N)N1 (stereo partly shown) [Example 94A]	9.05	
CC1(C)CC(=O)N(C[C@H]2C[C@@H]2C(=O)N[C@H]2CC(C)(C)Oc3ccc(Cl)cc32)C(=N)N1 [Example 95]	6.96	
COc1cccc2c1C(NC(=O)[C@H]1C[C@@H]1[C@@H](c1cccnc1)N1C(=N)NC(C)(C)CC1=O)CC(C)(C)O2 (stereo partly shown) [Example 96A]	8.57	
COc1cccc2c1C(NC(=O)[C@H]1C[C@@H]1[C@@H](c1cccnc1)N1C(=N)NC(C)(C)CC1=O)CC(C)(C)O2 (stereo partly shown) [Example 96B]		8.48
CC1(C)CC(=O)N(C[C@H]2C[C@@H]2C(=O)NC2CC(C)(C)Oc3c(Cl)cc(Cl)cc32)C(=N)N1 (stereo partly shown) [Example 97A]	6.74	
CC1(C)CC(=O)N(C[C@H]2C[C@@H]2C(=O)NC2CC(C)(C)Oc3c(Cl)cc(Cl)cc32)C(=N)N1 (stereo partly shown) [Example 97B]		6.66
